The target of the test is T1, recombinant guanylate cyclase reporter cell line (Rattus norvegicus, UniProt P20595).
T1 construct: expressed in transfected cells
T1 sequence (P20595 1-619): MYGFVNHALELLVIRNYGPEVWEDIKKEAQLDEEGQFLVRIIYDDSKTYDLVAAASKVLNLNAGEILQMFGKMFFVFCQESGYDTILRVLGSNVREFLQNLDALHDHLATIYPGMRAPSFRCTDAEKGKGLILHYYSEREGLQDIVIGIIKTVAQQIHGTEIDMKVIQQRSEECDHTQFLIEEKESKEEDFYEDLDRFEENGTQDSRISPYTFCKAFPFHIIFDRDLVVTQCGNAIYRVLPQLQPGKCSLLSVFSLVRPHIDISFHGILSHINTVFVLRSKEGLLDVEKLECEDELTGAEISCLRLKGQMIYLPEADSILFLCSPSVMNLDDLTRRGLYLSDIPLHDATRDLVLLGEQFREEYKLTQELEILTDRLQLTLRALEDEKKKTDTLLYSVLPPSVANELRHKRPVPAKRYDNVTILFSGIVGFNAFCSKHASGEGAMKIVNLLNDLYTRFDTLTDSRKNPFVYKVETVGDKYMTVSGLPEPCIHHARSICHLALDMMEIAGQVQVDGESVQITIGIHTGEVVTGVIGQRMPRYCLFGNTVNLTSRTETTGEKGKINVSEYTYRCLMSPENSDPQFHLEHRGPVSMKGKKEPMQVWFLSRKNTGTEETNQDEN
T1 sequence (P19686 1-690 partner): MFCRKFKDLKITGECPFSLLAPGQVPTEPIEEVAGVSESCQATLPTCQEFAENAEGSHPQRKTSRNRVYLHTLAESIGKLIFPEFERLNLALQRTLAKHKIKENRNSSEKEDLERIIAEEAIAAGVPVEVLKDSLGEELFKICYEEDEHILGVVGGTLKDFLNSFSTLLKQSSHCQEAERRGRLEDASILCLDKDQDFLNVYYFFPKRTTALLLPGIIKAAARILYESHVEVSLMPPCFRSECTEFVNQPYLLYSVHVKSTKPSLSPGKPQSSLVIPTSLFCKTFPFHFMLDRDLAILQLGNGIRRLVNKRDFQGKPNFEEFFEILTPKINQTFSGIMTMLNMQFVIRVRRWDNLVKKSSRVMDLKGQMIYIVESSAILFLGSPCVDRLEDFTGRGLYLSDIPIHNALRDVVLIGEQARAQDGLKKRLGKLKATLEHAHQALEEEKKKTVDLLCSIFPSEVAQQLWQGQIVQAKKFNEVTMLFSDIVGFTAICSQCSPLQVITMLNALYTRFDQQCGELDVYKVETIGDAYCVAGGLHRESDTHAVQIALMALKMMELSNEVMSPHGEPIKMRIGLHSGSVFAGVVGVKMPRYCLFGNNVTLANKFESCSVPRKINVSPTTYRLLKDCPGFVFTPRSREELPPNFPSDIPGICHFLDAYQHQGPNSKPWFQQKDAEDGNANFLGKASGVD
In words: Effect on a recombinant guanylate cyclase reporter cell line. The test is classed as cell-based. The conditions noted are these: for EC50: half maximal effective concentration; for MEC: minimum effective concentration. The protocol: B-1. Effect on a Recombinant Guanylate Cyclase Reporter Cell Line
The cellular activity of the compounds according to the invention was determined using a recombinant guanylate cyclase reporter cell line, as described in F. Wunder et al., Anal. Biochem. 339, 104-112 (2005).

From patent US20240101528A1, “SUBSTITUTED PYRAZOLO PIPERIDINE CARBOXYLIC ACIDS” (BAYER AKTIENGESELLSCHAFT, priority 2020, published 2024) come the findings set out here.

SMILES strings stand for the structures. Where a name gives a salt, the structure may show the parent alone.

On to `O=C(O)c1cnn(C2CCCN(c3cc(Cl)ccc3-c3ccc(N4CCN(CC5CC5(F)F)CC4)cc3)C2)c1C(F)F` (single isomer, unassigned; diastereomer 1) [Example 28, 1-{1-[4-Chloro-4′-(4-{[2,2-difluorocyclopropyl]methyl}piperazin-1-yl)[biphenyl]-2-yl]piperidin-3-yl}-5-(difluoromethyl)-1H-pyrazole-4-carboxylic acid hydrochloride (Diastereomer 1)], for which the EC50 worked out at 0.8 nM and the MEC worked out at 0.3 nM.
Turning to `CC(C)CN1CCN(c2ccc(-c3ccc(Cl)cc3N3CC(n4ncc(C(=O)O)c4C(F)F)CC(F)(F)C3)cc2)CC1` (single isomer, unassigned; enantiomer 1) [Example 54, 1-{1-[4-Chloro-4′-(4-isobutylpiperazin-1-yl)[biphenyl]-2-yl]-5,5-difluoropiperidin-3-yl}-5-(difluoromethyl)-1H-pyrazole-4-carboxylic acid hydrochloride (Enantiomer 1)], the EC50 worked out at 8.4 nM and the MEC was 3.0 nM.
The corresponding values for `O=C(O)c1cnn(C2CCCN(c3cc(Cl)ccc3-c3ccc(N4CCN(CC(F)(F)F)CC4)nc3)C2)c1C(F)F` (single isomer, unassigned; enantiomer 2) [Example 65, 1-[1-(5-Chloro-2-{6-[4-(2,2,2-trifluoroethyl)piperazin-1-yl]pyridin-3-yl}phenyl)piperidin-3-yl]-5-(difluoromethyl)-1H-pyrazole-4-carboxylic acid hydrochloride (Enantiomer 2)] are 6.9 nM and 1.0 nM.
In the case of `O=C(O)c1cnn(C2CCCN(c3cc(Cl)ccc3-c3ccc(N4CCN(CC5CC5(F)F)CC4)cc3)C2)c1C(F)F` (mixture of isomers) [Example 27, 1-{1-[4-Chloro-4′-(4-{[2,2-difluorocyclopropyl]methyl}piperazin-1-yl)[biphenyl]-2-yl]piperidin-3-yl}-5-(difluoromethyl)-1H-pyrazole-4-carboxylic acid hydrochloride (Diastereomeric mixture 2)], the EC50 amounted to 2.8 nM and the MEC is on record as 0.3 nM.
Consider `O=C(O)c1cnn(C2CCCN(c3cc(Cl)ccc3-c3ccc(N4CCN(CC5(F)CCC5)CC4)cc3)C2)c1C(F)F` (single isomer, unassigned; enantiomer 2) [Example 16, 1-[1-(4-Chloro-4′-{4-[(1-fluorocyclobutyl)methyl]piperazin-1-yl}[biphenyl]-2-yl)piperidin-3-yl]-5-(difluoromethyl)-1H-pyrazole-4-carboxylic acid hydrochloride (Enantiomer 2)], for which the EC50 is 2.6 nM and the MEC is reported as 0.3 nM.
The corresponding values for `CC(C)(F)C(=O)N1CCN(c2ccc(-c3ccc(Cl)cc3N3CCCC(n4ncc(C(=O)O)c4C(F)F)C3)cc2)CC1` (single isomer, unassigned; enantiomer 2) [Example 49, 1-(1-{4-Chloro-4′-[4-(2-fluoro-2-methylpropanoyl)piperazin-1-yl][biphenyl]-2-yl}piperidin-3-yl)-5-(difluoromethyl)-1H-pyrazole-4-carboxylic acid (Enantiomer 2)] are 13.9 nM and 3.0 nM.
In the case of `O=C(O)c1cnn(C2CCCN(c3cc(Cl)ccc3-c3ccc(N4CCN(CC5CC5F)CC4)cc3)C2)c1C(F)F` (single isomer, unassigned; diastereomer 3) [Example 33, 1-[1-[5-Chloro-2-[4-[4-[(trans-2-fluorocyclopropyl)methyl]piperazin-1-yl]phenyl]phenyl]-3-piperidyl]-5-(difluoromethyl)pyrazole-4-carboxylic acid hydrochloride (Diastereomer 3)], the EC50 worked out at 4.1 nM and the MEC stood at 0.3 nM.
Turning to `O=C(O)c1cnn(C2CCCN(c3cc(Cl)ccc3-c3ccc(N4CCN(CC5CC5F)CC4)cc3)C2)c1C(F)F` (mixture of isomers) [Example 32, 1-[1-[5-chloro-2-[4-[4-[(trans-2-fluorocyclopropyl)methyl]piperazin-1-yl]phenyl]phenyl]-3-piperidyl]-5-(difluoromethyl)pyrazole-4-carboxylic acid hydrochloride (Diastereoisomeric mixture 2)], the EC50 worked out at 2.7 nM and the MEC is given as 0.3 nM.
For `O=C(O)c1cnn(C2CCCN(c3cc(Cl)ccc3-c3ccc(C4CCN(C(=O)C5CC5)CC4)cc3)C2)c1C(F)F` (single isomer, unassigned; enantiomer 2) [Example 57, 1-(1-{4-Chloro-4′-[1-(cyclopropylcarbonyl)piperidin-4-yl][biphenyl]-2-yl}piperidin-3-yl)-5-(difluoromethyl)-1H-pyrazole-4-carboxylic acid hydrochloride (Enantiomer 2)], the EC50 is less than 1 nM and the MEC is 0.3 nM.
`O=C(O)c1cnn(C2CCCN(c3cc(Cl)ccc3-c3ccc(N4CCN(CC(F)(F)F)CC4)nc3)C2)c1C(F)F` (single isomer, unassigned; enantiomer 1) [Example 64, 1-[1-(5-Chloro-2-{6-[4-(2,2,2-trifluoroethyl)piperazin-1-yl]pyridin-3-yl}phenyl)piperidin-3-yl]-5-(difluoromethyl)-1H-pyrazole-4-carboxylic (Enantiomer 1)]: the EC50 turned out to be 1.9 nM and the MEC amounted to 1.0 nM.
In the case of `O=C(O)c1cnn(C2CCCN(c3cc(Cl)ccc3-c3ccc(N4CCN(CC5CCC5)CC4)cc3)C2)c1C(F)F` (single isomer, unassigned; enantiomer 2) [Example 14, 1-[1-{4-Chloro-4′-[4-(cyclobutylmethyl)piperazin-1-yl][biphenyl]-2-yl}piperidin-3-yl]-5-(difluoromethyl)-1H-pyrazole-4-carboxylic acid hydrochloride (Enantiomer 2)], the EC50 was determined as 13.2 nM and the MEC was determined as 1.0 nM.
On to `O=C(O)c1cnn(C2CCCN(c3cc(Cl)ccc3-c3ccc(N4CCN(CCC(F)F)CC4)cc3)C2)c1C(F)F` (single isomer, unassigned; enantiomer 2) [Example 22, 1-(1-{4-Chloro-4′-[4-(3,3-difluoropropyl)piperazin-1-yl][biphenyl]-2-yl}piperidin-3-yl)-5-(difluoromethyl)-1H-pyrazole-4-carboxylic acid hydrochloride (Enantiomer 2)], for which the 50% effective concentration (EC50) came out at 1 nM and the MEC is less than 0.3 nM.
Consider `CC(C)N1CCN(c2ccc(-c3ccc(Cl)cc3N3CCCC(n4ncc(C(=O)O)c4C(F)F)C3)cc2)CC1` (single isomer, unassigned; enantiomer 2) [Example 7, 1-{1-[4-Chloro-4′-(4-isopropylpiperazin-1-yl)[biphenyl]-2-yl]piperidin-3-yl}-5-(difluoromethyl)-1H-pyrazole-4-carboxylic acid hydrochloride (Enantiomer 2)], for which the EC50 amounted to 43.3 nM and the MEC amounted to 10.0 nM.
The corresponding values for `O=C(O)c1cnn(C2CCCN(c3cc(Cl)ccc3-c3ccc(N4CCCC4)cc3)C2)c1C(F)F` (single isomer, unassigned; enantiomer 2) [Example 45, 1-{1-[4-Chloro-4′-(pyrrolidin-1-yl)[biphenyl]-2-yl]piperidin-3-yl}-5-(difluoromethyl)-1H-pyrazole-4-carboxylic acid (Enantiomer 2)] are 42.5 nM and 3.0 nM.
For `CC(F)(F)CN1CCN(c2ccc(-c3ccc(Cl)cc3N3CCCC(n4ncc(C(=O)O)c4C(F)F)C3)cc2)CC1` (single isomer, unassigned; enantiomer 2) [Example 25, 1-(1-{4-Chloro-4′-[4-(2,2-difluoropropyl)piperazin-1-yl][biphenyl]-2-yl}piperidin-3-yl)-5-(difluoromethyl)-1H-pyrazole-4-carboxylic acid hydrochloride (Enantiomer 2)], the EC50 is 2.4 nM and the MEC is 0.3 nM.

The term EC50 denotes the midpoint of the concentration-response curve.
